# Results taken from patent publication US20230265151A1, “GIP/GLP1 CO-AGONIST COMPOUNDS” (priority 2020, published 2023).
# Where two headings read alike, the source gives them in different places.
# Assays:
# Type in all cases: cell-based
# [1] = target: T1, hGIPR (Homo sapiens, UniProt P48546); assay: Functional cAMP formation (HTRF) in HEK-293 clonal cells expressing hGIPR, 0.1% bovine casein, without or with 1.0% human serum albumin; conditions: for Emax: percent of maximal response to GIP(1-42)NH2; for EC50: cAMP
# T1 construct: expressed in transfected cells
# T1 sequence (P48546 22-466): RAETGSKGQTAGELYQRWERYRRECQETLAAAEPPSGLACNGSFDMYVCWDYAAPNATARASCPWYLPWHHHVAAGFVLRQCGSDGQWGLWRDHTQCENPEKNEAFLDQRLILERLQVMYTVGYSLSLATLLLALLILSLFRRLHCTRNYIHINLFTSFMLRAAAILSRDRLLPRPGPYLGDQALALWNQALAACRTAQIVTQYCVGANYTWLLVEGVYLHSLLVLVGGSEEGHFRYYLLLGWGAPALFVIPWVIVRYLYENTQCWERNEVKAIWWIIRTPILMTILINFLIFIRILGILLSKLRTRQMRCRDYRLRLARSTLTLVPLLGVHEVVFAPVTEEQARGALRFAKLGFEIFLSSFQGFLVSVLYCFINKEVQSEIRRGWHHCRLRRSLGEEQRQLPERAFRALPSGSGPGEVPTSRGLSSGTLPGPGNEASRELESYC
# Method in brief: (§1)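 Cells were stimulated with peptide for 30 min at 37° C, then intracellular cAMP was measured by competitive HTRF (665/620 nm ratio) and converted to nM using a cAMP standard curve. Relative EC50 and Emax came from four-parameter logistic fits of percent maximal response against peptide concentration.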
# [2] = target: hGLP-1R (Homo sapiens, UniProt P43220); assay: Functional cAMP formation (HTRF) in HEK-293 clonal cells expressing hGLP-1R, 0.1% bovine casein, without or with 1.0% human serum albumin; set-up: expressed in transfected cells; conditions: for Emax: percent of maximal response to GLP-1(7-36)NH2; for EC50: cAMP
# Chain of hGLP-1R (P43220 24-463): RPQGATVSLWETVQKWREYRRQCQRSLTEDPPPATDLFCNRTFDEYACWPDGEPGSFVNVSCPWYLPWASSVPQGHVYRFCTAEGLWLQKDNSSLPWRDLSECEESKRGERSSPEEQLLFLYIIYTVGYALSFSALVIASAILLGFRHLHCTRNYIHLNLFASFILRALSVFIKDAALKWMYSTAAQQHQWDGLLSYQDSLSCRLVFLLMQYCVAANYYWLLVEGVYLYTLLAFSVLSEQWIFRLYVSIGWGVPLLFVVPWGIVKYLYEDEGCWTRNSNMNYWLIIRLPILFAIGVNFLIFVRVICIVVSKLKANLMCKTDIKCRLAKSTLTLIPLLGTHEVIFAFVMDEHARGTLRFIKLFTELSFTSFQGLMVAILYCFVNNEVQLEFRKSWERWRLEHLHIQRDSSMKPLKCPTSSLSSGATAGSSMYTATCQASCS
# Method in brief: as §1
# [3] = target: T2, hGCGR (Homo sapiens, UniProt P47871); assay: Functional cAMP formation (HTRF) in HEK-293 clonal cells expressing hGCGR, 0.1% bovine casein, without or with 1.0% human serum albumin; conditions: cAMP, 37° C.
# T2 construct: expressed in transfected cells
# T2 sequence (P47871 26-477): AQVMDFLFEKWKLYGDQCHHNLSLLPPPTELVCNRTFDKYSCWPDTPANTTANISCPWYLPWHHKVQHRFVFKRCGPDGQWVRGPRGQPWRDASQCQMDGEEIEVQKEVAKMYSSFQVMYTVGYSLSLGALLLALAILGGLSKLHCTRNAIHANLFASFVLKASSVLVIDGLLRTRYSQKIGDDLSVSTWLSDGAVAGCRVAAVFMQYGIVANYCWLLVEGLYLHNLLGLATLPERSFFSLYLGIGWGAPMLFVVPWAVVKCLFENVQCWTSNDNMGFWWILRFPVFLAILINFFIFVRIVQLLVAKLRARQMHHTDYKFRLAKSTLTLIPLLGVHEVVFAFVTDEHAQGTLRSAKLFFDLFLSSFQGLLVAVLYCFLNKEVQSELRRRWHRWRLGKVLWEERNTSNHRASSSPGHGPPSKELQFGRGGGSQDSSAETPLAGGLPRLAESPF
# Method in brief: as §1
# [4] = HEK293, cAMP, 37° C., 0.1% bovine casein and 1.0% human serum albumin, read-out: hGIPR Emax, % ± SEM
# [5] = 37° C., 0.1% bovine casein (no human serum albumin), geometric mean, read-out: hGIPR EC50, nM (SEM, n)
# [6] = HEK293, cAMP, 37° C., 0.1% bovine casein and 1.0% human serum albumin, read-out: hGLP-1R Emax, % ± SEM
# [7] = HEK293, cAMP, 37° C., 0.1% bovine casein, arithmetic mean, read-out: hGLP-1R Emax, % ± SEM
# [8] = 37° C., 0.1% bovine casein (no human serum albumin), geometric mean, read-out: hGLP-1R EC50, nM (SEM, n)
# [9] = 0.1% bovine casein (no human serum albumin), geometric mean, read-out: hGCGR EC50, nM (SEM, n)
# [10] = 0.1% bovine casein and 1.0% human serum albumin, geometric mean (SEM, n), read-out: hGCGR EC50, nM (SEM, n)
Structure (SMILES),"Emax [1, 4] [%]","EC50 [1, 5] [nM]","EC50 ([1]; 37° C., 0.1% bovine casein and 1.0% human serum albumin, geometric mean (SEM, n), read-out: hGIPR EC50, nM (SEM, n)) [nM]","Emax [2, 6] [%]","Emax [2, 7] [%]","EC50 [2, 8] [nM]","EC50 [3, 9] [nM]","EC50 [3, 10] [nM]","Emax ([1]; HEK293, read-out: hGIPR Emax, % ± SEM, cAMP, 37° C., 0.1% bovine casein and 1.0% human serum albumin) [%]","EC50 ([1]; hGIPR EC50, nM (SEM, n), 37° C., 0.1% bovine casein (no human serum albumin), geometric mean) [nM]","Emax ([2]; HEK293, read-out: hGLP-1R Emax, % ± SEM, cAMP, 37° C., 0.1% bovine casein and 1.0% human serum albumin) [%]","Emax ([2]; HEK293, read-out: hGLP-1R Emax, % ± SEM, cAMP, 37° C., 0.1% bovine casein, arithmetic mean) [%]","EC50 ([2]; hGLP-1R EC50, nM (SEM, n), 37° C., 0.1% bovine casein (no human serum albumin), geometric mean) [nM]","EC50 ([2]; hGLP-1R EC50, nM (SEM, n), 37° C., 0.1% bovine casein and 1.0% human serum albumin, geometric mean (SEM, n)) [nM]","EC50 ([3]; hGCGR EC50, nM (SEM, n), 0.1% bovine casein (no human serum albumin), geometric mean) [nM]","EC50 ([3]; hGCGR EC50, nM (SEM, n), 0.1% bovine casein and 1.0% human serum albumin, geometric mean (SEM, n)) [nM]","Emax ([1]; HEK293, cAMP, 37° C., 0.1% bovine casein, arithmetic mean, read-out: hGIPR Emax, % ± SEM) [%]","EC50 ([2]; 37° C., 0.1% bovine casein and 1.0% human serum albumin, geometric mean (SEM, n), read-out: hGLP-1R EC50, nM (SEM, n)) [nM]"
CC[C@H](C)[C@H](NC(=O)[C@H](CC(C)C)NC(=O)[C@](C)(Cc1ccc(O)cc1)NC(=O)[C@H](CCCCNC(=O)CCOCCOCCOCCOCCOCCNC(=O)CC[C@H](NC(=O)CCCCCCCCCCCCC(=O)O)C(=O)O)NC(=O)[C@@H](NC(=O)[C@H](Cc1ccccc1)NC(=O)[C@H](CCCN)NC(=O)C(C)(C)NC(=O)[C@H](CCC(N)=O)NC(=O)[C@H](C)NC(=O)[C@H](CCC(N)=O)NC(=O)[C@H](CCCN)NC(=O)[C@H](CC(=O)O)NC(=O)[C@H](CC(C)C)NC(=O)[C@](C)(CC(C)C)NC(=O)[C@@H](NC(=O)C(C)(C)NC(=O)[C@H](Cc1ccncc1)NC(=O)[C@H](CC(=O)O)NC(=O)[C@H](CO)NC(=O)[C@@H](NC(=O)[C@](C)(Cc1ccccc1F)NC(=O)[C@@H](NC(=O)CNC(=O)[C@H](CCC(=O)O)NC(=O)C(C)(C)NC(=O)[C@@H](N)Cc1ccc(O)cc1)[C@@H](C)O)[C@@H](C)O)[C@@H](C)CC)[C@@H](C)CC)C(=O)N[C@@H](CCCCNC(=O)CCOCCOCCOCCOCCOCCNC(=O)CC[C@H](NC(=O)CCCCCCCCCCCCC(=O)O)C(=O)O)C(=O)NCC(=O)NCC(=O)N1CCC[C@H]1C(=O)N[C@@H](CO)C(=O)N[C@@H](CO)C(=O)NCC(=O)N[C@@H](C)C(=O)N1CCC[C@H]1C(=O)N1CCC[C@H]1C(=O)N1CCC[C@H]1C(=O)N[C@@H](CO)C(N)=O [Example 467],88.4,0.0113,0.35,97.9,110,0.131,> 10100,> 10100,–,–,–,–,–,–,–,–,–,–
CC[C@H](C)[C@H](NC(=O)[C@H](CC(C)C)NC(=O)[C@](C)(Cc1ccc(O)cc1)NC(=O)[C@H](CCCCNC(=O)CCOCCOCCOCCOCCOCCNC(=O)CC[C@H](NC(=O)CCCCCCCCCOc1ccc(C(=O)O)cc1)C(=O)O)NC(=O)[C@@H](NC(=O)[C@H](Cc1ccccc1)NC(=O)[C@H](CCCN)NC(=O)C(C)(C)NC(=O)[C@H](CCC(N)=O)NC(=O)[C@H](C)NC(=O)[C@H](CCC(N)=O)NC(=O)[C@H](CCCN)NC(=O)[C@H](CC(=O)O)NC(=O)[C@H](CC(C)C)NC(=O)[C@](C)(CC(C)C)NC(=O)[C@@H](NC(=O)C(C)(C)NC(=O)[C@H](Cc1ccncc1)NC(=O)[C@H](CC(=O)O)NC(=O)[C@H](CO)NC(=O)[C@@H](NC(=O)[C@](C)(Cc1ccccc1F)NC(=O)[C@@H](NC(=O)CNC(=O)[C@H](CCC(=O)O)NC(=O)C(C)(C)NC(=O)[C@@H](N)Cc1ccc(O)cc1)[C@@H](C)O)[C@@H](C)O)[C@@H](C)CC)[C@@H](C)CC)C(=O)N[C@@H](CCCCNC(=O)CCOCCOCCOCCOCCOCCNC(=O)CC[C@H](NC(=O)CCCCCCCCCOc1ccc(C(=O)O)cc1)C(=O)O)C(=O)NCC(=O)NCC(=O)N1CCC[C@H]1C(=O)N[C@@H](CO)C(=O)N[C@@H](CO)C(=O)NCC(=O)N[C@@H](C)C(=O)N1CCC[C@H]1C(=O)N1CCC[C@H]1C(=O)N1CCC[C@H]1C(=O)N[C@@H](CO)C(N)=O [Example 469],–,–,–,–,–,–,–,–,82.1,0.0121,93.8,111,0.161,2.33,> 9950,> 9950,–,–
CC[C@H](C)[C@H](NC(=O)[C@H](CC(C)C)NC(=O)[C@](C)(Cc1ccc(O)cc1)NC(=O)[C@H](CCCCNC(=O)COCCOCCNC(=O)COCCOCCNC(=O)[C@H]1CC[C@H](CNC(=O)CC[C@H](NC(=O)CCCCCCCCCCCCC(=O)O)C(=O)O)CC1)NC(=O)[C@@H](NC(=O)[C@H](Cc1ccccc1)NC(=O)[C@H](CCCN)NC(=O)C(C)(C)NC(=O)[C@H](CCC(N)=O)NC(=O)[C@H](C)NC(=O)[C@H](CCC(N)=O)NC(=O)[C@H](CCCN)NC(=O)[C@H](CC(=O)O)NC(=O)[C@H](CC(C)C)NC(=O)[C@](C)(CC(C)C)NC(=O)[C@@H](NC(=O)C(C)(C)NC(=O)[C@H](Cc1ccncc1)NC(=O)[C@H](CC(=O)O)NC(=O)[C@H](CO)NC(=O)[C@@H](NC(=O)[C@](C)(Cc1ccccc1F)NC(=O)[C@@H](NC(=O)CNC(=O)[C@H](CCC(=O)O)NC(=O)C(C)(C)NC(=O)[C@@H](N)Cc1ccc(O)cc1)[C@@H](C)O)[C@@H](C)O)[C@@H](C)CC)[C@@H](C)CC)C(=O)N[C@@H](CCCCNC(=O)COCCOCCNC(=O)COCCOCCNC(=O)[C@H]1CC[C@H](CNC(=O)CC[C@H](NC(=O)CCCCCCCCCCCCC(=O)O)C(=O)O)CC1)C(=O)NCC(=O)NCC(=O)N1CCC[C@H]1C(=O)N[C@@H](CO)C(=O)N[C@@H](CO)C(=O)NCC(=O)N[C@@H](C)C(=O)N1CCC[C@H]1C(=O)N1CCC[C@H]1C(=O)N1CCC[C@H]1C(=O)N[C@@H](CO)C(N)=O [Example 470],93.9,0.0103,–,113,112,0.127,> 9950,> 9950,–,–,–,–,–,–,–,–,–,–
CC[C@H](C)[C@H](NC(=O)[C@H](CCCN)NC(=O)[C@H](CC(=O)O)NC(=O)[C@H](CC(C)C)NC(=O)[C@](C)(CC(C)C)NC(=O)[C@@H](NC(=O)C(C)(C)NC(=O)[C@H](Cc1ccc(O)cc1)NC(=O)[C@H](CC(=O)O)NC(=O)[C@H](CO)NC(=O)[C@@H](NC(=O)[C@](C)(Cc1ccccc1F)NC(=O)[C@@H](NC(=O)CNC(=O)[C@H](CCC(=O)O)NC(=O)C(C)(C)NC(=O)[C@@H](N)Cc1ccc(O)cc1)[C@@H](C)O)[C@@H](C)O)[C@@H](C)CC)C(=O)N[C@@H](C)C(=O)N[C@@H](CCC(N)=O)C(=O)NC(C)(C)C(=O)N[C@@H](CCCN)C(=O)N[C@@H](Cc1ccccc1)C(=O)N[C@H](C(=O)N[C@@H](CCCCNC(=O)COCCOCCNC(=O)COCCOCCNC(=O)COCCOCCNC(=O)CC[C@H](NC(=O)CCCCCCCCCCCCC(=O)O)C(=O)O)C(=O)N[C@@](C)(Cc1ccc(O)cc1)C(=O)N[C@@H](CC(C)C)C(=O)N[C@H](C(=O)N[C@@H](CCCCNC(=O)COCCOCCNC(=O)COCCOCCNC(=O)COCCOCCNC(=O)CC[C@H](NC(=O)CCCCCCCCCCCCC(=O)O)C(=O)O)C(=O)NCC(=O)NCC(=O)N1CCC[C@H]1C(=O)N[C@@H](CO)C(=O)N[C@@H](CO)C(=O)NCC(=O)N[C@@H](C)C(=O)N1CCC[C@H]1C(=O)N1CCC[C@H]1C(=O)N1CCC[C@H]1C(=O)N[C@@H](CO)C(N)=O)[C@@H](C)CC)[C@@H](C)CC [Example 478],84,0.0139,–,–,109,0.322,> 9950,> 9950,–,–,–,–,–,–,–,–,93.9,6.16
